Measurements published in patent US20060084577A1, “Formulation and application of Indole-Derivatives for avoiding fruit and vegetable cracking” (priority 2004, published 2006).

System: sweet cherries, 'Schneiders' variety
Assay: Field trial of cracking of sweet cherries after application of Tryptophane on cherry trees
Format: in vivo, Prunus avium L.
Conditions: for Number of Damaged Fruits / Percentage of Damaged Fruits: 20 and 29 Jun. 2002, 300 cherries sampled at harvest, evaluated Jul. 7, 2002 after heavy rainfall
Description: The following Experiments describe the results of field trials, showing the reducing effect on the cracking of cherries by applying Tryptophane on cherry trees. The influence of the application of the anti-cracking formulation of the present invention on cracking of sweet cherries, was tested on the commercially available ‘Schneiders’ variety of sweet cherry in Belgium during the 2002 growing season. The plant density was approximately 1,646 stems per acre (666 stems/hectare or “ha”). Two different amounts of Tryptophane were applied on the cherry tries and compared with an untreated control. • Experiment 1: Control Group (No treatment with the anti-cracking formulation.) • Experiment 2: 0.0223 lb/acre (25 g/ha) Tryptophane, on 20 Jun. 2002, and 0.0223 lb/acre (25 g/ha) Tryptophane, on 29 Jun. 2002. • Experiment 3: 0.0446 lb/acre (50 g/ha) Tryptophane, on 20 Jun. 2002, and 0.0446 lb/acre (50 g/ha) Tryptophane, on 29 Jun. 2002.
On Jun. 20, 2002, the plants of Experiment 1 and Experiment 2, as listed above, were treated in the evening, under sunny conditions, 71.6° F. (22° C.), and little wind. The cherries began to ripen. On Jun. 29, 2002, the plants of Experiment 1 and Experiment 2 were again treated in the evening, at sunny growth conditions, under slightly cloudy skies, 68° F. (20° C.), and moderate wind. The ripening of the cherries was fully underway.
An evaluation of the cherries in the above Experiments were made on Jul. 7, 2002, after heavy rainfall. For the Experiment's Results, as listed in TABLE 1, below, 300 cherries were randomly sampled at harvest, from which the number of intact and damaged cherries was determined.

[1] = 2* 0.0223 lb/acre (25 g/ha) Tryptophane
[2] = 2*0.0446 lb/acre (50 g/ha) Tryptophane

N[C@@H](Cc1c[nH]c2ccccc12)C(=O)O [Tryptophane]
Number of Damaged Fruits [1]: 78 | Percentage of Damaged Fruits [1]: 26% | Number of Damaged Fruits [2]: 42 | Percentage of Damaged Fruits [2]: 14% | reduction of the damage to the cherries (double application of 0.0446 lbs per acre (50 g per hectare), versus untreated control): approximately 50%
